We go through two molecules from ChEMBL document CHEMBL1156253 (Eur J Med Chem, 2010).

The test addresses T1, Peroxisome proliferator-activated receptor gamma (Homo sapiens, UniProt P37231).
T1 sequence (P37231 whole entry): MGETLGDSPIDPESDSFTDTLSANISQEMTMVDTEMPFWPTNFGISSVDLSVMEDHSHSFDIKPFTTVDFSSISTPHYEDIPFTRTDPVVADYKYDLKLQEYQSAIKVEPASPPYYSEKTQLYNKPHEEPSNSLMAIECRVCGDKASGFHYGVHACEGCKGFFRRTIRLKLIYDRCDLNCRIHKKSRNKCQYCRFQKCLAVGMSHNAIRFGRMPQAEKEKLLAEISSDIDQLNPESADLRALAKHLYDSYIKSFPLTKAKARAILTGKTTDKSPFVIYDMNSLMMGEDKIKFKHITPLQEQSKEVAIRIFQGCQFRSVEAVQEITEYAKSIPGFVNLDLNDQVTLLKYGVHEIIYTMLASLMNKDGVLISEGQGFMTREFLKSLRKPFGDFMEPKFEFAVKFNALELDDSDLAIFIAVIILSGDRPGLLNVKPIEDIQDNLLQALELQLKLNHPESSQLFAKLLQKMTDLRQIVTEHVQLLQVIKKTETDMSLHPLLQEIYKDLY
Briefly: Agonist activity at N-terminal His-tagged human PPARgamma ligand binding domain by fluorescence polarization assay.

`Cc1ccc(COc2ccccc2/C=C2/SC(=S)N(CCC(=O)O)C2=O)cc1` registered an IC50 of 1.32 µM.

The molecule `O=C(O)CCN1C(=O)/C(=C\c2ccc(Cl)cc2Cl)SC1=S` yielded an IC50 of 0.876 µM.
